In assay [1] the test system is AU565 cells. Put plainly: MTT cell viability assay, mammary carcinoma. The class given is cell-based, human. The note with it: for IC50: Homo sapiens. How it is done:
(§1) Human cell lines were obtained from the American Type Culture Collection (ATCC, Manassas, VA, USA). Normal lung MRC-5 fibroblasts (ATCC® CCL-171™), SK-MES-1 lung cancer cells (ATCC® HTB-58™), and J82 bladder carcinoma cells (ATCC® HTB-1™) were grown as monolayers in Eagle’s minimum essential medium (MEM) with Earle’s salts, 2 mM L-glutamine, and 1.5 g/L sodium bicarbonate. Gastric epithelial AGS cells (ATCC® CRL-1739™) were grown as monolayers in Ham’s F-12 medium containing 1 mM L-glutamine and 1.5 g/L sodium bicarbonate. Promyelocytic leukemia HL-60 (ATCC® CCL-240™), colorectal adenocarcinoma HCT-15 (ATCC® CCL-225™), metastatic colorectal COLO205 (ATCC® CCL-222™), and breast cancer AU565 (ATCC® CRL-2351™, ER^−-HER2/neu^+) cells were grown in suspension in an RPMI-1640 medium containing 1 mM sodium pyruvate and 2.0 g/L sodium bicarbonate. Human breast cancer MCF-7 (ATCC® HTB-22™, ER^+-HER2/neu^−) and MDA-MB-231 (ATCC® HTB-26™, ER^−-HER2/neu^−) cells were grown as monolayers in DMEM medium. All media were supplemented with 10% heat-inactivated fetal bovine serum (HI-FBS), 100 IU/mL penicillin G, and 100 µg/mL streptomycin. Cells were maintained at 37 °C in a humidified incubator with 5% CO2.
(§2) MRC-5, SK-MES-1, J82, and AGS cells were seeded at a density of 5 × 10^4 cells/mL in 96-well plates. COLO205, HCT-15, MCF-7, MDA-MB-231, and AU565 cells were seeded at 1 × 10^5 cells/mL, while HL-60 cells were plated at 3 × 10^5 cells/mL. A volume of 100 µL of the cell suspension was added to each well. After 24 h, the compounds were added in increasing concentrations (ranging from 0 to 100 µM), and cells were incubated for 24, 48, or 72 h. The compounds were dissolved in DMSO and diluted in complete medium to a final concentration of 0.5% DMSO. Cells treated with 0.5% DMSO in complete medium were used as viability controls (100%). Etoposide (98% purity, Sigma-Aldrich, St. Louis, MO, USA) was used as the reference compound. Each concentration was tested in quadruplicate, and each experiment was performed twice using independent cell preparations. At the end of the incubation period, cell viability was determined using the MTT reduction assay. The results were transformed into percentages relative to controls, and IC50 values were obtained graphically from the dose–response curves. Results are presented as IC50 values ± standard deviation (SD).
For orientation: Tetrazolium assays rely on reduction of a dye to a coloured formazan, in cell work by metabolically active cells.

Another assay relates to SK-MES-1 cells. Briefly: MTT cell viability assay, lung cancer. Format: cell-based. As to conditions: Homo sapiens, SK-MES-1, 72 h. How it is done:
as §1, §2

In the next assay the test system is AGS cells. Put plainly: MTT cell viability assay, gastric adenocarcinoma. The class given is cell-based. As to conditions: Homo sapiens, 72 h. How it is done: as §1, §2
For assay [2], the system named is AU565 cells. Briefly: Oxygen consumption assay (Clark-type electrode). As to conditions: AU565, 10 and 20 µM. The class given is cell-based, human. The protocol:
(§3) Oxygen consumption of the tumor cells was measured polarographically using a Clark-type electrode (Yellow Springs Instruments, Dayton, OH, USA) placed horizontally in a cell of 0.6 mL volume at 25 °C, coupled to a YSI monitor (model 53). The electrode signal was recorded in a computer connected to a DI-148U module with a USB interface. Data were acquired using the Windaq Acquisition Waveform Recorder software v3.36 (DataQ Instruments, Akron, OH, USA). The test medium used contained 150 mM NaCl, 5 mM KCl, and 1 mM Tris-HCl, and pH 7.4. 5 mM glutamine was added with the cells and test compounds. Oxygen consumption was recorded when the cell aliquots (6 × 10^6 cells) were added. Oligomycin (1.5 μg/mL) was added as an inhibitor of the Fo subunit of ATP synthase prior to the incorporation of the compounds under study. FCCP (carbonyl cyanide-p-trifluoromethoxyphenylhydrazone, 50 nM) was used prior to the addition of test compounds as an internal control to calibrate the electrode system and confirm the maximum uncoupling capacity of the cells.

Another assay has as its system MCF-7 cells. Briefly: Oxygen consumption assay (Clark-type electrode). The note with it: for oxygen consumption rate: after oligomycin. The class given is cell-based, human. The protocol:
as §3

SMILES strings stand for the structures.

As to `C=C(C)[C@@H]1CC[C@]2(C(=O)OCCCC[P+](c3ccccc3)(c3ccccc3)c3ccccc3)CC[C@]3(C)[C@H](CC[C@@H]4[C@@]5(C)CC[C@H](O)C(C)(C)[C@@H]5CC[C@]43C)[C@@H]12` [BA-C4-TPP^+Br^−, 4-Triphenylphosphoniobutyl 3β-hydroxylup-20(29)-en-28-oate bromide], the “increase in potency compared to non-modified BA scaffold” value with AU565 cells [1] (AU565 cells at 48 h) is approximately 15 fold. Besides, the IC50 is 1660 ± 120 nM in the assay on AU565 cells [1] (AU565, 24 h); 600 ± 50 nM in the assay with AU565 cells [1] (AU565, 48 h); 320 ± 80 nM with SK-MES-1 cells; 350 ± 20 nM in the assay with AGS cells. In addition, the mitochondrial uncoupling effect entry with AU565 cells [2] is “the strongest uncoupler in AU565 cells”; in the assay with MCF-7 cells (MCF-7, 10 and 20 µM), “concentration-dependent”. Also, the oxygen consumption rate in the assay on MCF-7 cells (MCF-7, 10 µM compound) is given as 12.57 nmol O2 min^−1; in the assay with MCF-7 cells (MCF-7, 20 µM compound), 21.66 nmol O2 min^−1.

One may read the IC50 as the concentration that gives 50% inhibition. Low readings indicate greater potency in that assay, high ones weaker potency in that assay.

The values above are taken from article PMC12292992, “Betulinic Acid ω-Triphenylphosphonium Alkyl Esters: Antiproliferative Activities and In Silico Pharmacokinetic Profiles” (Biomedicines, 2025).
